One experiment deals with engineered cell lines. The experiment can be described thus: Selectivity across the engineered cell lines (calcein AM IC50 ratios). Format: cell-based, human. The settings on record: from selectivity ratio for each subsequent pair of cell lines in a series. The method, then:
To calculate this selectivity score between two cell lines, the IC50 for a compound in one cell line was divided by the IC50 for the same compound in a second cell line. […] The “tumor selectivity score” was calculated for each compound, by dividing the IC50 value for the compound in the parental, primary BJ cells by the IC50 value for the compound in engineered BJ-TERTALT/ST/RAS^V12 cells, containing all four genetic elements required to create tumorigenic cells (Table 1).
Applicants sought to determine the genetic basis of selectivity for each compound. That is, for each compound, they attempted to define the gene or combination of genes responsible for rendering cells sensitive to the compound (Table 1).
The IC50 in primary BJ cells was divided by the IC50 in BJ-TERT/LT/ST/RAS^V12 tumorigenic cells to obtain a tumor selectivity ratio for each compound. The compound selectivity for each genetic element was determined by calculating the selectivity ratio for each subsequent pair of cell lines in a series.

The test system of experiment [1] is BJ-TERT/LT/ST/RAS^V12 cells. The experiment can be described thus: Nuclear morphology assay. Format: cell-based, human. The source says:
Applicants sought to characterize the type of cell death induced by CPT and erastin in tumorigenic BJ-TERT/LT/ST/RAS^V12 cells. […] To determine whether erastin or CPT induces apoptosis in their system, Applicants monitored the nuclear morphology of CPT- and erastin-treated tumorigenic cells using fluorescence microscopy. […] Since nuclear morphological change is required of apoptotic cells, Applicants conclude that cell death induced by erastin is non-apoptotic. […] Additionally, nuclei remained intact in erastin-treated tumor cells (FIG. 9).
200,000 tumorigenic BJ-TERT/LT/ST/RAS^V12 cells were seeded in 2 mL on glass coverslips in each well of a six-well dish, treated with nothing (NT), 9 μM erastin or 1.1 μM camptothecin (CPT) in growth medium for 18 hours while incubating at 37° C. with 5% CO2. Nuclei were stained with 25 μg/mL Hoechst 33342 (Molecular Probes) and viewed using an oil immersion 100× objective on a fluorescence microscope.

Experiment [2] has as its system BJ-TERT/LT/ST/RAS^V12 cells. The experiment can be described thus: Western blot for active caspase-3. The class given is cell-based, human. The method, then:
BJ-TERT/LT/ST/RAS^V12 cells were seeded prior to the experiment at 5×10^5 cells in 60 mm dishes. The cells were treated with 5 μg/ml erastin (9 μM) for 2, 4, 6, 8 or 10 hours. One dish was maintained for camptothecin treatment (0.4 μlg/ml for 24 h) as a positive control. Cells were lysed after each time point in lysis buffer (50 mM HEPES KOH pH 7.4, […], 2 mM EDTA, 0.5% Triton X-100, 1.5 mM Na3VO4, 50 mM NaF, 10 mM sodium pyrophosphate, 10 mM sodium beta-glycerophosphate and protease inhibitor tablet (Roche)). Protein content was quantified using a Biorad protein assay reagent. Equal amounts of protein were resolved on 16% SDS-polyacrylamide gel. The electrophoresed proteins were transblotted onto a PVDF membrane, blocked with 5% milk and incubated with anti-active caspase-3 polyclonal antibody (BD Pharmingen) at 1:1500 dilution overnight at 4° C. The membrane was then incubated in anti-rabbit-HRP (Santa Cruz Biotechnology) at 1:3000 dilution for 1 hour and developed with an enhanced chemiluminescence mixture (NEN life science, Renaissance). To test for equivalent loading in each lane, blots were stripped, blocked, and probed with an anti-eIF-4E antibody (BD Transduction laboratories) at 1:1000 dilution.
(In general: A western blot detects proteins with antibodies after separation by electrophoresis.)

For the next experiment, the system named is BJ primary cells. The experiment can be described thus: Sensitization of BJ primary cells by co-treatment (calcein AM viability). Format: cell-based, human. The source says:
(A-C) Western blot of lysates from BJ, BJ-TERT, BJ-TERT/LT/ST, BJ-TERT/LT/ST/RAS^V12, BJ-TERT/LT/RAS^V12 and BJ-TERT/LT/RAS^V12/ST cells with an antibody directed against topoisomerase II (A) or TOPI (B, C). In panel (C), cells were transfected with a siRNA directed against TOPI, lamic A/C or with a control double strand DNA duplex of the same length (TOPI dsDNA). In each case, the blot was probed with an antibody against eIF-4E to identify differences in the amount of protein loaded. The relative amount is quantitated below each band. (D) A TOPI siRNA prevents cell death caused by camptothecin in engineered tumor cells. Cell number was determined after transfection with a siRNA directed against TOPI and treatment with the indicated concentrations of camptothecin. (E) Okadaic acid, an inhibitor of PP2A and other cellular phosphatases, sensitizes primary human cells to camptothecin. BJ primary cells were treated simultaneously with the indicated concentrations of both camptothecin and okadaic acid and the effect on calcein AM viability staining was determined. […] BJ primary cells were treated with the indicated concentrations of okadaic acid and the expression level of TOPI was determined by western blot. The relative amount is quantitated below each band.
The compounds in group (iii) are camptothecin (CPT) and a novel compound from a combinatorial library, which Applicants have named erastin, for eradicator of RAS and ST-expressing cells (FIG. 2). Efficient CPT-induced and erastin-induced cell death requires the presence of both ST and RAS^V12 (FIGS. 3 and 4 and Table 1). Although CPT and erastin have a similar genetic basis of selectivity, they have distinct mechanisms of action. CPT is partially active in cells lacking RB function (via expression of E7), whereas erastin is not, and CPT requires two days to cause death in BJ-TERT/LT/ST/RAS^V12 cells, while erastin is 100% effective within 18 hours (FIGS. 3 and 4). […]

In another experiment the test system is TOP1. The experiment can be described thus: Western blot for TOP1 expression in BJ primary cells. Format: cell-based, human. The source says: (A-C) Western blot of lysates from BJ, BJ-TERT, BJ-TERT/LT/ST, BJ-TERT/LT/ST/RAS^V12, BJ-TERT/LT/RAS^V12 and BJ-TERT/LT/RAS^V12/ST cells with an antibody directed against topoisomerase II (A) or TOPI (B, C). In panel (C), cells were transfected with a siRNA directed against TOPI, lamic A/C or with a control double strand DNA duplex of the same length (TOPI dsDNA). In each case, the blot was probed with an antibody against eIF-4E to identify differences in the amount of protein loaded. The relative amount is quantitated below each band. (D) A TOPI siRNA prevents cell death caused by camptothecin in engineered tumor cells. Cell number was determined after transfection with a siRNA directed against TOPI and treatment with the indicated concentrations of camptothecin. (E) Okadaic acid, an inhibitor of PP2A and other cellular phosphatases, sensitizes primary human cells to camptothecin. BJ primary cells were treated simultaneously with the indicated concentrations of both camptothecin and okadaic acid and the effect on calcein AM viability staining was determined. […] BJ primary cells were treated with the indicated concentrations of okadaic acid and the expression level of TOPI was determined by western blot. The relative amount is quantitated below each band. […]

Experiment [3] deals with tumor cells versus normal cells. As to the kind of experiment: Erastin analogs tested for activity and selectivity in tumor cells versus normal cells. Format: cell-based. The source says:
Applicants additionally tested 135 analogs of erastin for activity and selectivity in tumor cells versus normal cells. […] This compound was named erastin B (see FIG. 8). In certain embodiments of the invention, the invention relates to the compound, erastin.
Applicants additionally tested other analogs of erastin for activity and selectivity in tumor cells versus normal cells. […] This compound was named erastin B (see FIG. 8). BJELR cells are BJ-TERT/LT/ST/RAS^V12 cells, and BJEH are BJ-TERT cells.

Take `CC[C@@]1(O)C(=O)OCc2c1cc1n(c2=O)Cc2cc3ccccc3nc2-1` [Camptothecin]: the “Genetic basis of Selectivity” value in the experiment on engineered cell lines is listed as “RAS^v12/PP2A/RB”. For the same molecule, the “nuclear morphology by fluorescence microscopy” value in experiment [1] (9 μM erastin or 1.1 μM camptothecin, 18 hours) is “karyorhexis and margination of chromatin were clearly visible”. Also, in experiment [1] (BJ-TERT/LT/ST/RAS^V12 cells), the fragmented nuclei is 10-20 % of total nuclei. The “cleaved, active caspase 3” value in experiment [2] was “appearance of cleaved, active caspase 3”.

On to `C=C1[C@@H](O)[C@@H]2O[C@]3(CC[C@H](/C=C/[C@@H](C)[C@@H]4CC(C)=C[C@@]5(O[C@H](C[C@@](C)(O)C(=O)O)CC[C@H]5O)O4)O3)CC[C@H]2O[C@@H]1[C@@H](O)C[C@H](C)[C@H]1O[C@@]2(CCCCO2)CC[C@H]1C` [okadaic acid], for which the sensitization to camptothecin entry with BJ primary cells (BJ (or BJ-TERT) cells, simultaneous treatment with camptothecin) is “renders BJ cells sensitive to camptothecin”. Also, the sensitization to erastin entry with BJ primary cells (BJ or BJ-TERT cells) is “does not render BJ or BJ-TERT cells sensitive to erastin”. The “expression level of TOP1 by western blot” value with TOP1 is reported as “stimulates expression of TOP1”.

For erastin B, the “activity and selectivity of erastin analogs/derivatives” value in experiment [3] was “active and selective, but less potent than erastin”.

The record behind these values is patent US7615554B2, “Erastin and erastin binding proteins, and uses thereof” (Prolexys Pharmaceuticals, Inc., priority 2005, dated 2009).
